Measured values taken from patent US11787825B2 (priority 2021, dated 2023).
Like-named read-outs stand apart in the source and are kept apart here.

[1] = 0.1N HCL, 1.0% DMSO, 24-hour incubation at ambient temperature, maximum theoretical compound concentration 100 μM
[2] = 1×PBS buffer (pH 7.4), 1.0% DMSO, 24-hour incubation at ambient temperature, maximum theoretical compound concentration 100 μM

| pH 2 solubility [1] | pH 7 solubility [2] | Compound | pH 2 solubility (pH 2) | pH 7 solubility (pH 7.4) |
| --- | --- | --- | --- | --- |
| 1 μM | 90 μM | CC(C)(C#Cc1ccc(-c2ccc(Cl)c3c(N(C(=O)CNC(=O)C(=O)O)S(C)(=O)=O)nn(CC(F)(F)F)c23)c([C@H](Cc2cc(F)cc(F)c2)NC(=O)Cn2nc(C(F)(F)F)c3c2C(F)(F)[C@@H]2C[C@H]32)n1)S(C)(=O)=O [Compound 13, 2-((2-(N-(4-chloro-7-(2-((S)-1-(2-((3bS,4aR)-5,5-difluoro-3-(trifluoromethyl)-3b,4,4a,5-tetrahydro-1H-cyclopropa[3,4]cyclopenta[1,2-c]pyrazol-1-yl)acetamido)-2-(3,5-difluorophenyl)ethyl)-6-(3-methyl-3-(methylsulfonyl)but-1-yn-1-yl)pyridin-3-yl)-1-(2,2,2-trifluoroethyl)-1H-indazol-3-yl)methylsulfonamido)-2-oxoethyl)amino)-2-oxoacetic acid] | – | – |
| – | – | CC(C)(CC(=O)N(c1nn(CC(F)(F)F)c2c(-c3ccc(C#CC(C)(C)S(C)(=O)=O)nc3[C@H](Cc3cc(F)cc(F)c3)NC(=O)Cn3nc(C(F)(F)F)c4c3C(F)(F)[C@@H]3C[C@H]43)ccc(Cl)c12)S(C)(=O)=O)c1c(CC(=O)O)cc(C(N)=O)cc1OP(=O)(O)O [Compound 68] | <1/65 μM | <1/65 μM |
| 7 μM | 1 μM | CC(C)[C@H](N)C(=O)OCCCCC(=O)N(c1nn(CC(F)(F)F)c2c(-c3ccc(C#CC(C)(C)S(C)(=O)=O)nc3[C@H](Cc3cc(F)cc(F)c3)NC(=O)Cn3nc(C(F)(F)F)c4c3C(F)(F)[C@@H]3C[C@H]43)ccc(Cl)c12)S(C)(=O)=O [Compound 14] | – | – |
| 51 μM | 1 μM | CC(C)[C@@H](C(=O)N(c1nn(CC(F)(F)F)c2c(-c3ccc(C#CC(C)(C)S(C)(=O)=O)nc3[C@H](Cc3cc(F)cc(F)c3)NC(=O)Cn3nc(C(F)(F)F)c4c3C(F)(F)[C@@H]3C[C@H]43)ccc(Cl)c12)S(C)(=O)=O)N(C)C [Compound 8, N-(4-chloro-7-(2-((S)-1-(2-((3bS,4aR)-5,5-difluoro-3-(trifluoromethyl)-3b,4,4a,5-tetrahydro-1H-cyclopropa[3,4]cyclopenta[1,2-c]pyrazol-1-yl)acetamido)-2-(3,5-difluorophenyl)ethyl)-6-(3-methyl-3-(methylsulfonyl)but-1-yn-1-yl)pyridin-3-yl)-1-(2,2,2-trifluoroethyl)-1H-indazol-3-yl)-2-(dimethylamino)-3-methyl-N-(methylsulfonyl)butanamide] | – | – |
| 69 μM | 2 μM | CC(C)[C@H](N)C(=O)N(c1nn(CC(F)(F)F)c2c(-c3ccc(C#CC(C)(C)S(C)(=O)=O)nc3[C@H](Cc3cc(F)cc(F)c3)NC(=O)Cn3nc(C(F)(F)F)c4c3C(F)(F)[C@@H]3C[C@H]43)ccc(Cl)c12)S(C)(=O)=O [Compound 20, (S)-2-amino-N-(4-chloro-7-(2-((S)-1-(2-((3bS,4aR)-5,5-difluoro-3-(trifluoromethyl)-3b,4,4a,5-tetrahydro-1H-cyclopropa[3,4]cyclopenta[1,2-c]pyrazol-1-yl)acetamido)-2-(3,5-difluorophenyl)ethyl)-6-(3-methyl-3-(methylsulfonyl)but-1-yn-1-yl)pyridin-3-yl)-1-(2,2,2-trifluoroethyl)-1H-indazol-3-yl)-3-methyl-N-(methylsulfonyl)butanamide] | – | – |
| 92 μM | 20 μM | CN(C)CCCC[C@H](N)C(=O)N(c1nn(CC(F)(F)F)c2c(-c3ccc(C#CC(C)(C)S(C)(=O)=O)nc3[C@H](Cc3cc(F)cc(F)c3)NC(=O)Cn3nc(C(F)(F)F)c4c3C(F)(F)[C@@H]3C[C@H]43)ccc(Cl)c12)S(C)(=O)=O [Compound 16, ((S)-2-amino-N-(4-chloro-7-(2-((S)-1-(2-((3bS,4aR)-5,5-difluoro-3-(trifluoromethyl)-3b,4,4a,5-tetrahydro-1H-cyclopropa[3,4]cyclopenta[1,2-c]pyrazolyl)acetamido)-2-(3,5-difluorophenyl)ethyl)-6-(3-methyl-3-(methylsulfonyl)but-1-ynyl)pyridin-3-yl)-1-(2,2,2-trifluoroethyl)-1H-indazol-3-yl)-6-(dimethylamino)-N-(methylsulfonyl)hexanamide)] | – | – |
| 1 μM | 14 μM | CC(C)(C#Cc1ccc(-c2ccc(Cl)c3c(N(C(=O)[C@H](CCC(=O)O)NC(=O)C(=O)O)S(C)(=O)=O)nn(CC(F)(F)F)c23)c([C@H](Cc2cc(F)cc(F)c2)NC(=O)Cn2nc(C(F)(F)F)c3c2C(F)(F)[C@@H]2C[C@H]32)n1)S(C)(=O)=O [Compound 24, (S)-4-(carboxyformamido)-5-(N-(4-chloro-7-(2-((S)-1-(2-((3bS,4aR)-5,5-difluoro-3-(trifluoromethyl)-3b,4,4a,5-tetrahydro-111-cyclopropa[3,4]cyclopenta[1,2-c]pyrazol-1-yl)acetamido)-2-(3,5-difluorophenyl)ethyl)-6-(3-methyl-3-(methylsulfonyl)but-1-yn-1-yl)pyridin-3-yl)-1-(2,2,2-trifluoroethyl)-1H-indazol-3-yl)methylsulfonamido)-5-oxopentanoic acid] | – | – |
| – | – | CC(C)(CC(=O)N(c1nn(CC(F)(F)F)c2c(-c3ccc(C#CC(C)(C)S(C)(=O)=O)nc3[C@H](Cc3cc(F)cc(F)c3)NC(=O)Cn3nc(C(F)(F)F)c4c3C(F)(F)[C@@H]3C[C@H]43)ccc(Cl)c12)S(C)(=O)=O)c1c(CC(=O)N[C@@H](CC(=O)O)C(=O)O)cc(C(N)=O)cc1OP(=O)(O)O [Compound 69, (2-(5-carbamoyl-2-(4-(N-(4-chloro-7-(2-((S)-1-(2-((3bS,4aR)-5,5-difluoro-3-(trifluoromethyl)-3b,4,4a,5-tetrahydro-1H-cyclopropa[3,4]cyclopenta[1,2-c]pyrazol-1-yl)acetamido)-2-(3,5-difluorophenyl)ethyl)-6-(3-methyl-3-(methylsulfonyl)but-1-yn-1-yl)pyridin-3-yl)-1-(2,2,2-trifluoroethyl)-1H-indazol-3-yl)methylsulfonamido)-2-methyl-4-oxobutan-2-yl)-3-(phosphonooxy)phenyl)acetyl)-L-aspartic acid] | 3/75 μM | 3/75 μM |
| 14 μM | 22 μM | CC(C)(C#Cc1ccc(-c2ccc(Cl)c3c(N(C(=O)CN(CC(=O)O)CC(=O)O)S(C)(=O)=O)nn(CC(F)(F)F)c23)c([C@H](Cc2cc(F)cc(F)c2)NC(=O)Cn2nc(C(F)(F)F)c3c2C(F)(F)[C@@H]2C[C@H]32)n1)S(C)(=O)=O [Compound 23] | – | – |
| – | – | CC(C)(CC(=O)N(c1nn(CC(F)(F)F)c2c(-c3ccc(C#CC(C)(C)S(C)(=O)=O)nc3[C@H](Cc3cc(F)cc(F)c3)NC(=O)Cn3nc(C(F)(F)F)c4c3C(F)(F)[C@@H]3C[C@H]43)ccc(Cl)c12)S(C)(=O)=O)c1c(CC(=O)N[C@@H](CC(=O)O)C(=O)O)cccc1OP(=O)(O)O [Compound 71, (2-(2-(4-(N-(4-chloro-7-(2-((S)-1-(2-((3bS,4aR)-5,5-difluoro-3-(trifluoromethyl)-3b,4,4a,5-tetrahydro-1H-cyclopropa[3,4]cyclopenta[1,2-c]pyrazol-1-yl)acetamido)-2-(3,5-difluorophenyl)ethyl)-6-(3-methyl-3-(methylsulfonyl)but-1-yn-1-yl)pyridin-3-yl)-1-(2,2,2-trifluoroethyl)-1H-indazol-3-yl)methylsulfonamido)-2-methyl-4-oxobutan-2-yl)-3-(phosphonooxy)phenyl)acetyl)-L-aspartic acid] | 2/88 μM | 2/88 μM |
| 1/1 μM | 1/1 μM | COC(=O)N[C@@H](C)C(=O)N(c1nn(CC(F)(F)F)c2c(-c3ccc(C#CC(C)(C)S(C)(=O)=O)nc3[C@H](Cc3cc(F)cc(F)c3)NC(=O)Cn3nc(C(F)(F)F)c4c3C(F)(F)[C@@H]3C[C@H]43)ccc(Cl)c12)S(C)(=O)=O [Compound 7, methyl ((5)-1-(N-(4-chloro-7-(2-((S)-1-(2-((3bS,4aR)-5,5-difluoro-3-(trifluoromethyl)-3b,4,4a,5-tetrahydro-1H-cyclopropa[3,4]cyclopenta[1,2-c]pyrazol-1-yl)acetamido)-2-(3,5-difluorophenyl)ethyl)-6-(3-methyl-3-(methylsulfonyl)but-1-yn-1-yl)pyridin-3-yl)-1-(2,2,2-trifluoroethyl)-1H-indazol-3-yl)methylsulfonamido)-1-oxopropan-2-yl)carbamate] | – | – |
| 1/1 μM | 1/1 μM | CC(C)(CC(=O)O)C(=O)N(c1nn(CC(F)(F)F)c2c(-c3ccc(C#CC(C)(C)S(C)(=O)=O)nc3[C@H](Cc3cc(F)cc(F)c3)NC(=O)Cn3nc(C(F)(F)F)c4c3C(F)(F)[C@@H]3C[C@H]43)ccc(Cl)c12)S(C)(=O)=O [Compound 15, 4-(N-(4-chloro-7-(2-((S)-1-(2-((3bS,4aR)-5,5-difluoro-3-(trifluoromethyl)-3b,4,4a,5-tetrahydro-1H-cyclopropa[3,4]cyclopenta[1,2-c]pyrazol-1-yl)acetamido)-2-(3,5-difluorophenyl)ethyl)-6-(3-methyl-3-(methylsulfonyl)but-1-yn-1-yl)pyridin-3-yl)-1-(2,2,2-trifluoroethyl)-1H-indazol-3-yl)methylsulfonamido)-3,3-dimethyl-4-oxobutanoic acid] | – | – |
| 1/1 μM | 1/1 μM | COC(=O)CCC(=O)N(c1nn(CC(F)(F)F)c2c(-c3ccc(C#CC(C)(C)S(C)(=O)=O)nc3[C@H](Cc3cc(F)cc(F)c3)NC(=O)Cn3nc(C(F)(F)F)c4c3C(F)(F)[C@@H]3C[C@H]43)ccc(Cl)c12)S(C)(=O)=O [Compound 10, methyl 4-(N-(4-chloro-7-(2-((S)-1-(2-((3bS,4aR)-5,5-difluoro-3-(trifluoromethyl)-3b,4,4a,5-tetrahydro-1H-cyclopropa[3,4]cyclopenta[1,2-c]pyrazol-1-yl)acetamido)-2-(3,5-difluorophenyl)ethyl)-6-(3-methyl-3-(methylsulfonyl)but-1-yn-1-yl)pyridin-3-yl)-1-(2,2,2-trifluoroethyl)-1H-indazol-3-yl)methylsulfonamido)-4-oxobutanoate] | – | – |
